Experimental findings from US8431593B2, “Heteroaryl amide derivatives” (H. Lundbeck A/S, priority 2006, dated 2013) are described below.

For orientation: IC50 means the concentration that inhibits the measured activity by half.

The experiment concerns the target T1, P2X7 receptor (Homo sapiens, UniProt Q99572).
T1 construct: host or cells: SH-SY5Y
T1 sequence (Q99572 1-595): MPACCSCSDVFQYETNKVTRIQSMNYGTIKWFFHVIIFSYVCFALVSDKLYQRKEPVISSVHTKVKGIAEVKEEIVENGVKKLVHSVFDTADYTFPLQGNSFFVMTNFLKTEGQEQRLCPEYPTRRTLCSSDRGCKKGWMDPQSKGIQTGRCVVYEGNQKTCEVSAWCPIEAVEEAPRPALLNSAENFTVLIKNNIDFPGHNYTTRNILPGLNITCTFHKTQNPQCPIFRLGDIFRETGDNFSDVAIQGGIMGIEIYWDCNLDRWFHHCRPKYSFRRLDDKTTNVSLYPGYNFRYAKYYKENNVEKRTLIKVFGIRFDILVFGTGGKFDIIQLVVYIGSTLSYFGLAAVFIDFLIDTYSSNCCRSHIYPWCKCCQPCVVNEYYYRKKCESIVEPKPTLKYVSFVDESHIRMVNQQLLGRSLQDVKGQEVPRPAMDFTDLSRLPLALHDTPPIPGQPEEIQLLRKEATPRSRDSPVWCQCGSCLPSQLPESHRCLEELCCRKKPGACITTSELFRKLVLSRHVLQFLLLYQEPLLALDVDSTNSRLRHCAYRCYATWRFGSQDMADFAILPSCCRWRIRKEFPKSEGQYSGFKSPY
The experiment can be described thus: P2X7 calcium mobilization assay, high throughput, antagonist activity (Example 4A). It counts as cell-based. As to conditions: read-out: IC50. The gist of the method:
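Cells plated at 100,000/well the day before were dye-loaded for 1 h, then incubated 1 h at room temperature with test compound before agonist-triggered calcium mobilization was read on FLIPR Tetra. Maximum RFU was corrected by subtracting the no-agonist control and related to the agonist-control response.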
A general note: Calcium assays in cells follow changes in intracellular calcium, usually with a dye or a luminescent sensor.

Where [1] appears, read: 50% decrease in the fluorescence response of cells exposed to 80 μM 2′(3′)-O-(4-benzoyl-benzoyl)adenosine 5′-triphosphate, Example 4A.
Where [2] appears, read: 50% decrease in the fluorescence response of cells exposed to 80 μM of 2′(3′)-O-(4-benzoyl-benzoyl)adenosine 5′-triphosphate, determined as in Example 4A.
[3] abbreviates: 50% decrease in the fluorescence response of cells exposed to 80 μM of 2′(3′)-O-(4-benzoyl-benzoyl)adenosine 5′-triphosphate, Example 4A.

Where two headings read alike, the source gives them in different places. Some results are limits rather than exact numbers.

With `CC(C)[C@H]1CN(C(=O)Cc2cn3c(C(=O)NC[C@@H]4CC[C@@H]5C[C@H]4C5(C)C)cccc3n2)CCN1` [Compound 562, N-{[(1R,2R,5R)-6,6-dimethylbicyclo[3.1.1]hept-2-yl]methyl}-2-{2-[(3S)-3-isopropylpiperazin-1-yl]-2-oxoethyl}imidazo[1,2-a]pyridine-5-carboxamide], the IC50 under setting [1] was less than 2000 nM. Regarding `O=C(CC12CC3CC(CC(C3)C1)C2)Nc1cccc2nc(C(=O)N3CCC(C(F)(F)F)CC3)cn12` [Compound 382, 2-adamantan-1-yl-N-(2-{[4-(trifluoromethyl)piperidin-1-yl]carbonyl}imidazo[1,2-a]pyridin-5-yl)acetamide], the IC50 (fluorescence response of cells exposed to 80 μM 2′(3′)-O-(4-benzoyl-benzoyl)adenosine 5′-triphosphate, Example 4A) was less than 2000 nM. With `CCOC(=O)C1(c2cn3c(C(=O)NCC45CC6CC(CC(C6)C4)C5)cccc3n2)CCCCC1` [Compound 849, ethyl 1-{5-[(adamantan-1-ylmethyl)carbamoyl]imidazo[1,2-a]pyridin-2-yl} cyclohexane-carboxylate], under setting [2], the IC50 is less than 2000 nM. Take `N[C@@H]1CCN(Cc2cn3c(C(=O)NCC4(c5cccnc5)CCCCC4)cccc3n2)C1` [Compound 769, 2-[(3-aminopyrrolidin-1-yl)methyl]-N-[(1-pyridin-3-ylcyclohexyl)methyl] imidazo[1,2-a] pyridine-5-carboxamide]: the IC50 under setting [3] is less than 2000 nM. Take `NC(=O)c1cccc(NC(=O)Cc2cn3c(C(=O)NCC4CCCCCC4)cccc3n2)c1` [Compound 955, 2-{2-[(3-carbamoylphenyl)amino]-2-oxoethyl}-N-(cycloheptylmethyl) imidazo[1,2-a] pyridine-5-carboxamide]: the IC50 under setting [2] is less than 2000 nM. Regarding `CCN(CC)C(=O)CC(C(=O)O)c1cn2c(C(=O)NCC34CC5CC(CC(C5)C3)C4)cccc2n1` (stereo not drawn) [Compound 811, 2-{5-[(adamantan-1-ylmethyl)carbamoyl]imidazo[1,2-a]pyridin-2-yl}-4-(diethylamino)-4-oxobutanoic acid], the IC50 under setting [3] was less than 2000 nM. Regarding `CC(C(=O)N1CCC[C@@H](N)C1)c1cn2c(C(=O)NCC34CC5CC(CC(C5)C3)C4)cccc2n1` (stereo partly drawn) [Compound 751, N-(adamantan-1-ylmethyl)-2-[2-(3-aminopiperidin-1-yl)-1-methyl-2-oxoethyl]imidazo [1,2-a]pyridine-5-carboxamide], the IC50 under setting [3] is less than 2000 nM.

Turning to `CN(C)[C@@H]1CCN(C(=O)Cc2cn3c(C(=O)NCC45CC6CC(CC(C6)C4)C5)cccc3n2)C1` [Compound 691, N-(adamantan-1-ylmethyl)-2-{2-[(3R)-3-(dimethylamino)pyrrolidin-1-yl]-2-oxoethyl}imidazo[1,2-a]pyridine-5-carboxamide], the IC50 under setting [3] was less than 2000 nM. With `NC(=O)C1CCCN(C(=O)Cc2cn3c(C(=O)NCC45CC6CC(CC(C6)C4)C5)cccc3n2)C1` (stereo not drawn) [Compound 50, N-(adamantan-1-ylmethyl)-2-[2-(3-carbamoylpiperidin-1-yl)-2-oxoethyl]imidazo[1,2-a]pyridine-5-carboxamide], the concentration for half-maximal inhibition (IC50) (SH-SY5Y cells, 50% decrease in fluorescence response to 80 μM BzATP) was less than 2000 nM. On to `CCCC(CNC(=O)c1cccc2nc(CC(=O)N[C@@H]3CCCN(C(=O)OC(C)(C)C)C3)cn12)c1ccc(Cl)cc1` (stereo partly drawn) [Compound 924, tert-butyl (3R)-3-{[(5-{[2-(4-chlorophenyl)pentyl]carbamoyl}imidazo [1,2-a]pyridin-2-yl)acetyl]amino} piperidine-1-carboxylate], for which the IC50 under setting [2] was less than 2000 nM.

Consider `CC(C)CN(C)C(=O)c1cn2c(C(=O)NC[C@@H]3CC[C@H]4C[C@@H]3C4(C)C)cccc2n1` [Compound 467, 5-N-{[(1S,2R,5S)-6,6-dimethylbicyclo[3.1.1]hept-2-yl]methyl}-2-N-isobutyl-2-N-methylimidazo[1,2-a]pyridine-2,5-dicarboxamide], for which the IC50 under setting [1] is less than 2000 nM. For the molecule `O=C(NCC(c1ccc(C(F)(F)F)nc1)N1CCCCC1)c1cccc2ncc(Cl)n12` (stereo not drawn) [Compound 1058, 3-chloro-N-{2-piperidin-1-yl-2-[6-(trifluoromethyl)pyridin-3-yl]ethyl}imidazo[1,2-a]pyridine-5-carboxamide], the IC50 (P2X7 calcium mobilization, Example 4A, 50% decrease in the fluorescence response of cells exposed to 80 μM of (2′(3′)-O-(4-benzoyl-benzoyl)adenosine 5′-triphosephate)) was less than 2000 nM.
